Calls of active or inactive are those of the source. No rule for the calls is given here.
The compounds below were run against Chaperone protein DnaK (Escherichia coli (strain K12)) (UniProt P0A6Y8) (assay: binders of DnaK substrate-binding domain, biophysical, NMR, chaperone (AID 1033)). Settings: Purified DnaK SBD, NMR ligand binding.
Chain of Chaperone protein DnaK (Escherichia coli (strain K12)) (P0A6Y8 whole entry, looked up, the tested form may be a part): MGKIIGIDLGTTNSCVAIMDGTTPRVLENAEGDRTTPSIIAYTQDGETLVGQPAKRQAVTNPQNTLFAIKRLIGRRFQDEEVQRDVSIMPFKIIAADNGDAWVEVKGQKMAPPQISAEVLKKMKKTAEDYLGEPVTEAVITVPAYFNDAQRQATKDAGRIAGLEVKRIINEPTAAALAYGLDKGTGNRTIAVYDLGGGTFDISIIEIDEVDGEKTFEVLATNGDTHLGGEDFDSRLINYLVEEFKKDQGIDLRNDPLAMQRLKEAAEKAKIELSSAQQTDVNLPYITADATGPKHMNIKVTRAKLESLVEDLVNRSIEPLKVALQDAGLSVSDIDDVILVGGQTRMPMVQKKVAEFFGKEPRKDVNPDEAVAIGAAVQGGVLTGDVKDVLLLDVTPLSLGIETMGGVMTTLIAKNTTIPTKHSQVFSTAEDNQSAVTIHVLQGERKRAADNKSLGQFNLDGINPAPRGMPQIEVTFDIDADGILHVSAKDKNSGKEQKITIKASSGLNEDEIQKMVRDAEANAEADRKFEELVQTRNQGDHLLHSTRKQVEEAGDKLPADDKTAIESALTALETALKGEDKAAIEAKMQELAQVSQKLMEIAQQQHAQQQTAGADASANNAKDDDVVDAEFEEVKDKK
In the case of `CC(=O)c1cccc(NC(=O)C=C(C)C)c1`, the Kd is reported as > 4 mM (inactive). In the case of `O=C(Cc1c(F)cccc1Cl)Nc1cccnc1`, the Kd is reported as > 4 mM (inactive). For `COc1ccc(C)cc1S(=O)(=O)N1CCCCC1`, the Kd was > 4 mM (inactive). In the case of `CC(CCC(=O)O)[C@H]1CCC2C3C[C@H](O)[C@@H]4C[C@H](O)CC[C@]4(C)C3CC[C@@]21C` (stereo partly specified), the Kd is reported as > 4 mM (inactive). In the case of `C=C[C@@](C)(O)CCC1C(=C)C[C@H](OC(C)=O)C2C(C)(C)CCCC12C` (stereo partly specified), the Kd is reported as > 4 mM (inactive). In the case of `O=C(CNC(=O)c1cccs1)NC1=NCCS1`, the Kd is reported as > 4 mM (inactive). In the case of `CCSc1nnc(-c2ccccc2N)c(=O)[nH]1`, the Kd is reported as > 4 mM (inactive). For `COc1cc(C)nc(N(CCO)CCO)n1`, the Kd was > 4 mM (inactive). `O=C1CCNc2ccccc2N1` was tested, and the Kd was > 4 mM (inactive). In the case of `N#Cc1c(N)c(C(=O)c2ccccc2)n2c1CCC2`, the Kd is reported as > 4 mM (inactive). `CC(C)(C#N)O[C@@H]1O[C@H](CO)[C@@H](O)[C@H](O)[C@H]1O` was tested, and the Kd was > 4 mM (inactive). `O=S1(=O)CCC(NC(=S)Nc2ccccc2)C1` (stereo unspecified) was tested, and the Kd was > 4 mM (inactive). With `Clc1ccc(-n2ccnc2)nn1` the Kd was > 4 mM (inactive). For `CC(=O)n1c(N)nc2ccccc21`, the Kd was > 4 mM (inactive). For `Nc1ccc(Cc2ccncc2)cc1`, the Kd was > 4 mM (inactive). In the case of `NC1CSCC1O` (stereo unspecified), the Kd is reported as > 4 mM (inactive). `Cc1onc(-c2c(F)cccc2Cl)c1C(N)=O` was tested, and the Kd was > 4 mM (inactive). For `CN1C(=O)Cc2cc(S(N)(=O)=O)ccc21`, the Kd was > 4 mM (inactive). With `O=c1cc(-c2ccc(O)cc2)oc2cc(O)cc(O)c12` the Kd was > 4 mM (inactive). In the case of `O=C(NCO)c1ccccc1Cl`, the Kd is reported as > 4 mM (inactive). `CC(=O)N1CN(C(C)=O)CN(C(C)=O)C1` was tested, and the Kd was > 4 mM (inactive). In the case of `O=c1cc(-c2ccc(O)cc2)oc2cc(O[C@@H]3O[C@H](CO)[C@@H](O)[C@H](O)[C@H]3O[C@@H]3OC[C@](O)(CO)[C@H]3O)cc(O)c12`, the Kd is reported as > 4 mM (inactive). For `O=C(O)[C@H](O)[C@@](O)(Cc1ccc(O)cc1)C(=O)O`, the Kd was > 4 mM (inactive). With `NC(=O)c1ccc(-c2csnn2)cc1` the Kd was > 4 mM (inactive). With `COc1ccccc1/C=C\C(=O)O` the Kd was > 4 mM (inactive). `Cc1cc(C)nc(NC(N)=NCc2ccco2)n1` was tested, and the Kd was > 4 mM (inactive). `COC(=O)c1ccc(NC(=O)CC2NCCNC2=O)cc1` (stereo unspecified) was tested, and the Kd was > 4 mM (inactive). `Nc1cccc(NC(=O)c2ccco2)c1` was tested, and the Kd was > 4 mM (inactive). In the case of `Cc1cc(-c2ccc(Cl)cc2)n2nc(N)nc2n1`, the Kd is reported as > 4 mM (inactive). For `NC(=O)CCn1cnc2ccccc21`, the Kd was > 4 mM (inactive). In the case of `O=C(O)C1(O)C[C@@H](O)C(O)[C@H](O)C1` (stereo partly specified), the Kd is reported as > 4 mM (inactive). `O=C1NC(=S)N/C1=C\c1cccc([N+](=O)[O-])c1` was tested, and the Kd was > 4 mM (inactive). For `CN=C(C)c1c(O)n(C)c(=S)n(C)c1=O`, the Kd was > 4 mM (inactive). `Nc1ccc(CN2CCOCC2)cc1` was tested, and the Kd was > 4 mM (inactive). For `Cc1ccc2c(C)c(C(=O)Nc3nnc(C)s3)oc2c1`, the Kd was > 4 mM (inactive). `O=C(CC1CCCCC1)N1CCN(c2ccccn2)CC1` was tested, and the Kd was > 4 mM (inactive). With `O=C(c1ccccc1)N1CCN(c2ccccc2F)CC1` the Kd was > 4 mM (inactive). For `CNC(=O)n1ccc(C(=O)N2CCCCC2)n1`, the Kd was > 4 mM (inactive). For `Cc1ccc(-n2nnnc2SCC(N)=O)c(C)c1`, the Kd was > 4 mM (inactive). In the case of `NCCCCN`, the Kd is reported as > 4 mM (inactive). For `COc1cccc(N2CCN(C(=O)c3cccnc3)CC2)c1`, the Kd was > 4 mM (inactive). For `O=C1NC(=O)C(Cc2ccccc2)C(=O)N1`, the Kd was > 4 mM (inactive). For `c1ccc2[nH]c(-c3cscn3)nc2c1`, the Kd was > 4 mM (inactive). `O=C(O)CCNc1n[nH]c(=O)[nH]c1=O` was tested, and the Kd was > 4 mM (inactive). In the case of `CN1CCN(C(=S)NC(=O)c2ccn(C)n2)CC1`, the Kd is reported as > 4 mM (inactive). In the case of `COC(=O)/C(=C1\OC(=O)C(c2ccccc2)C1=O)c1ccccc1` (stereo unspecified), the Kd is reported as > 4 mM (inactive). In the case of `COc1cc(OC)c2c(c1Cl)OC1(C2=O)C(O)=CC(=O)CC1C` (stereo unspecified), the Kd is reported as > 4 mM (inactive). For `CC[C@H]1CN2CCC1C[C@@H]2[C@@H](O)c1ccnc2ccc(OC)cc12` (stereo partly specified), the Kd was > 4 mM (inactive). `C=C[C@@](C)(O)CCC1C(=C)C[C@H](O)C2C(C)(C)CCCC12C` (stereo partly specified) was tested, and the Kd was > 4 mM (inactive). `COC(=O)C[C@H]1C2(C)CC34OC5(C)O[C@@]6([C@H](OC(C)=O)C(OC(C)=O)[C@]7(C)C(/C(=C(/O)C(C)C)C(=O)O[C@H]7c7ccoc7)[C@@]6(O5)[C@H](OC(C)=O)[C@@]3(O)C2OC(=O)C(C)C)[C@]14C` (stereo partly specified) was tested, and the Kd was > 4 mM (inactive). In the case of `COC(=O)c1ccc2nccnc2c1`, the Kd is reported as > 4 mM (inactive). `Cc1ccc(C(=O)Nn2cnnc2)c(Cl)c1` was tested, and the Kd was > 4 mM (inactive). With `O=C(CSc1ccnc(=O)[nH]1)NCc1ccco1` the Kd was > 4 mM (inactive). For `CCc1sc(C(=O)NC)cc1Br`, the Kd was > 4 mM (inactive). With `O=C1CN(C(=O)CN2CCOCC2)c2ccccc2N1` the Kd was > 4 mM (inactive). With `NC(=S)NC1CCS(=O)(=O)C1` (stereo unspecified) the Kd was > 4 mM (inactive). For `Cc1cc(C)n(S(=O)(=O)c2ccc(C)c(C)c2C)n1`, the Kd was > 4 mM (inactive). In the case of `CC(C)CCCC(C)[C@H]1CCC2C3CC[C@@H]4C[C@H](O)CC[C@]4(C)C3CC[C@@]21C` (stereo partly specified), the Kd is reported as > 4 mM (inactive). For `C=CCc1ccc2c(c1)OCO2`, the Kd was > 4 mM (inactive). `Cc1ccccc1C(=O)Nn1cnnc1` was tested, and the Kd was > 4 mM (inactive). `COc1cccc(-c2nn(-c3ccccc3)cc2CO)c1` was tested, and the Kd was > 4 mM (inactive). `OC1CCN(Cc2ccc[nH]2)CC1` was tested, and the Kd was > 4 mM (inactive). In the case of `COc1cccc(NC(=O)c2ncn[nH]2)c1`, the Kd is reported as > 4 mM (inactive). In the case of `NS(=O)(=O)c1ccc(N2CCCC2=O)cc1`, the Kd is reported as > 4 mM (inactive). With `Nc1ccc2c(c1)OCCO2` the Kd was > 4 mM (inactive). `CC1(C)Cc2cccc(C(=O)O)c2O1` was tested, and the Kd was > 4 mM (inactive). With `OCc1ccc2c(c1)OCO2` the Kd was > 4 mM (inactive). For `NNc1ncnc2sccc12`, the Kd was > 4 mM (inactive). In the case of `CC1=CC2C(CC1=O)C(C)=CCC2C(C)C` (stereo unspecified), the Kd is reported as > 4 mM (inactive). With `CCOC(=O)c1c(C)cc(O)cc1O` the Kd was > 4 mM (inactive). For `COc1cccc(NC(=O)c2ocnc2C)c1`, the Kd was > 4 mM (inactive). In the case of `CCC(=O)Nc1cc(C(C)C)c(O)cc1C`, the Kd is reported as > 4 mM (inactive). In the case of `Oc1ccc2c(c1)OCC1(O)Cc3cc(O)c(O)cc3C21` (stereo unspecified), the Kd is reported as > 4 mM (inactive). `O=C(O)CSc1nc2ccccc2c(=O)[nH]1` was tested, and the Kd was > 4 mM (inactive). In the case of `Cc1nc2[nH]onc2c2nccc(=O)c12`, the Kd is reported as > 4 mM (inactive). `Cc1cc(SCC(=O)c2ccccc2)nc(=O)[nH]1` was tested, and the Kd was > 4 mM (inactive). In the case of `Cc1noc(C)c1C(=O)NCc1ccco1`, the Kd is reported as > 4 mM (inactive). In the case of `O=C(CSc1ccc(Cl)cc1)N1CCOCC1`, the Kd is reported as > 4 mM (inactive). In the case of `Nc1nc2ncc(CNc3ccc(C(=O)N[C@@H](CCC(=O)O)C(=O)O)cc3)nc2c(=O)[nH]1`, the Kd is reported as > 4 mM (inactive). In the case of `Nc1cccc(-n2cnnn2)c1`, the Kd is reported as > 4 mM (inactive). In the case of `CC(=O)c1cccc(NS(=O)(=O)N(C)C)c1`, the Kd is reported as > 4 mM (inactive). In the case of `CC1(C)CC(=O)c2cnn(-c3nc4ccccc4[nH]3)c2C1`, the Kd is reported as > 4 mM (inactive). With `NC(=O)CSc1nc2ncnc(N)c2[nH]1` the Kd was > 4 mM (inactive). With `c1cncc(Cn2cccc2)c1` the Kd was > 4 mM (inactive). For `Oc1ccc(-n2cncn2)cc1`, the Kd was > 4 mM (inactive). In the case of `Cc1noc(C)c1C(=O)NC1=NCCS1`, the Kd is reported as > 4 mM (inactive).

Source: PubChem BioAssay AID1033 (Sanford-Burnham Center for Chemical Genomics, 2008)
